Measured values from patent US20080241919A1, “Defined media for pluripotent stem cell culture” (The Burnham Institute of Medical Research, priority 2003, published 2008).

Key:
[1] = tested on: human embryonic stem cells (hESCs); experiment: Medium component requirement assay, hESCs on laminin/collagen-coated plates for seven days; assay type: cell-based
Method: (a) Media containing bFGF, insulin, and ascorbic acid sustain the healthy undifferentiated growth of hESCs on laminin/collagen-coated plates. Insulin (20 μg/ml), transferrin (8 μg/ml), albumin (for example, the commercial product known as AlbuMAXI) (10 mg/ml), and ascorbic acid (50 μg/ml) were added to a base medium that consisted of 100% DMEM/F-12 with 20 ng/ml bFGF, 2 mM L-alanyl-L-glutamine, 1×MEM essential amino acids solution, 1×MEM non-essential amino acids solution, and 100 μM β-mercaptoethanol. The degree of differentiation was judged by morphology of the colonies and Oct-4 expression. […] (red). […] However, if ascorbic acid was omitted from the media [D, H, L] […] White arrows in all panels delineate the edge of an hESC colony. The area delineated by the white square in [A], [E], and [I] indicates the approximate area that is visualized at higher magnification in [B, C], [F, G], and [J, K], respectively. [C], [G], and [K] is the image in [B], [F], and [J], respectively, merged with DAPI staining of their nuclei (blue).
(b) When either bFGF or insulin was omitted from the media, hESC colonies appeared to differentiate completely under the feeder- and serum-free conditions. […] The distinct growth effects of insulin and bFGF were further accentuated in media lacking ascorbic acid [C, F] (“NO Ascorbic Acid”). In the absence of ascorbic acid and in media that contained only insulin as the growth factor [C] (phase) (“NO Ascorbic Acid”), slower growth of the differentiated hESCs was observed (compare [A, B] to [C]). In ascorbic-acid-lacking media that contained bFGF as the only growth factor [F] […] White arrows in all panels delineate the edge of hESC colonies.
Having determined that substantial numbers of undifferentiated hESCs could be maintained over long periods in feeder-free environments using the bFGF-supplemented media described above, the necessity of other components in the medium to maintain hESCs in an undifferentiated state was next examined. “Knockout Serum Replacement” contains insulin, transferrin, ascorbic acid, amino acids, and AlbuMAX (a chromatographically-purified lipid-rich bovine serum albumin [BSA] with low IgG content, but nevertheless a xeno-derived product). Accordingly, whether insulin, transferrin, BSA, and ascorbic acid were essential components was assessed, in combination with bFGF, for maintaining hESCs in an undifferentiated state. The serum replacement components insulin (20 μg/ml), transferrin (8 μg/ml), albumin (AlbuMAX) (10 mg/ml), and ascorbic acid (50 μg/ml) were added to a base medium that consisted of DMEM/F-12 or KO-DMEM with bFGF (20 ng/ml), L-alanyl-L-glutamine or L-glutamine (2 mM), MEM essential amino acids solution (1×), MEM nonessential amino acids solution (1×), and β-mercaptoethanol (100 μM). To assay for the differentiation-forestalling activity of each of these components, undifferentiated hESCs were seeded on laminin/collagen-coated plates and cultivated for seven days in media containing one or more of the individual components. The degree of differentiation of the colonies was judged by defining morphology and Oct-4 expression.
When either bFGF or insulin was omitted from the media, more than 90% of the colonies appeared to differentiate completely within the first passage, as indicated by their differentiated morphology (FIG. 2b, A,B,D,E), their complete loss of Oct-4 expression, and their expression of the cell surface marker SSEA-1 (FIG. 2c, B,C). […] The different effects of insulin and bFGF were accentuated further in media lacking ascorbic acid. In the absence of ascorbic acid and in media containing only insulin, the growth of differentiated hESCs was simply slower (FIG. 2b, C). […] Although albumin and transferrin are not crucial components for sustaining the undifferentiated growth of hESCs, they might abet survival or maintenance of a normal colony shape.

[2] = tested on: human embryonic stem cells (hESCs); experiment: Other growth factors in place of bFGF for undifferentiated growth of hESCs; assay type: cell-based; settings: feeder- and serum-free conditions
Method: All the growth factors were dissolved in a PBS buffer that contained 0.5% BSA, 1 mM DTT (Dithiothreitol) and 10% glyceral as a 10 μg/ml (500×) stock solution and stored in aliquots at −80° C. These factors were added individually to the hESC cultures at a concentration of 20 ng/ml, in the absence of bFGF or in the presence of a low concentration of bFGF (4 ng/ml). Seven days after seeding undifferentiated hESCs on laminin/collagen-coated plates, the cultures were examined.

[3] = tested on: acetylated histone H3 and H4, Myc, Tip60 HAT, p300 HAT; experiment: Chromatin state immunofluorescence (acetylated H3/H4, Myc, Tip60, p300) in hESCs; assay type: cell-based, human; settings: named factor omitted from the media
Excerpt: (c) Presence of both bFGF and insulin is essential for maintenance of an acetylated transcriptionally active chromatin state in undifferentiated hESCs. When either bFGF or insulin is omitted from the media, the differentiated hESC colonies express the differentiation-associated cell surface marker SSEA-1 [B, C] […] (green), Myc [E, F] (red), and histone acetyltransferase (HAT) Tip60 [I, K] (green) and p300 [J, K] […] All cells are indicated by DAPI staining of their nuclei (blue).
To discover the minimal essential conditions needed to support the long-term growth of undifferentiated hESCs, morphological analysis was used to assess the developmental stage of hESCs at different times. For these analyses hESCs were grown in a 6- or 12-well plate to maturation (day 6 or 7 after seeding) before being fixed and visualized under a phase contrast microscope. Cellular immunofluorescence was also employed to assess the state of differentiation of hESCs. […] The state of differentiation of hESC was further assessed by generating (via lentiviral-mediated transduction) hESCs carrying a reporter gene (enhanced green fluorescence protein (EGFP)) under control of the Oct-4 promoter. Using these transfected hESCs (carrying Oct-4 driven EGFP), the undifferentiated state of hESCs can be visualized by green fluorescence (indicating Oct-4 expression). […]

[4] = tested on: human embryonic stem cells (hESCs); experiment: Growth of hESCs on purified matrix protein-coated plates; assay type: cell-based; settings: hESC media containing 20 ng/ml bFGF
Excerpt: (e) Characterization of hESCs maintained on matrix protein-coated plates in the defined hESC media - Determining the Minimal Essential Matrix. hESCs maintained on a laminin-coated plate have a classic undifferentiated morphology [A] (phase image) and express Oct-4 [B, C] (red). [C] is the image in [B] merged with DAPI staining of their nuclei (blue). White arrows delineate the edge of an hESC colony. The area delineated by the white square in [A] indicates the approximate area that is visualized at higher magnification in [B, C]. […] Red arrows in [D-F] indicate that the differentiated colony consisted of dense centers containing cyst-like structures and necrotic cells. Laminin, therefore, appeared to be the minimal sufficient matrix protein.
Having established that bFGF, insulin, and ascorbic acid were important minimal components of a feeder-free culture system, the growth of hESCs on purified matrix proteins, including human laminin-, fibronectin-, or collagen IV-coated plates in hESC media containing 20 ng/ml bFGF, was further examined.

## O=C1O[C@H]([C@@H](O)CO)C(O)=C1O [ascorbic acid, reference compound]
[1]; absence of ascorbic acid, media containing only bFGF
  cyst-like structures and necrotic cells within dense cores of differentiated hESC colonies: became more severe
[1]; absence of ascorbic acid, media containing only insulin
  growth of differentiated hESCs: simply slower
[1]; ascorbic acid omitted from the media
  appearance of hESC colonies: very dense at their core and necrotic

## EGF: epidermal growth factor (NSDSECPLSHDGYCLHDGVCMYIEALDKYACNCVVGYIGERCQYRDLKWWELR; Epidermal growth factor; UniProt P01133 971-1023, looked up)
[2]
  ability to replace bFGF in supporting undifferentiated growth of hESCs: can not replace bFGF

## IGF-I: insulin-like growth factor-I
[2]
  ability to replace bFGF in supporting undifferentiated growth of hESCs: can not replace bFGF

## IGF-II: insulin-like growth factor-II
[2]
  ability to replace bFGF in supporting undifferentiated growth of hESCs: can not replace bFGF

## PDGF: platelet-derived growth factor-AB
[2]
  ability to replace bFGF in supporting undifferentiated growth of hESCs: can not replace bFGF

## VEGF
[2]
  ability to replace bFGF in supporting undifferentiated growth of hESCs: can not replace bFGF

## aFGF: acidic fibroblast growth factor
[2]
  ability to replace bFGF in supporting undifferentiated growth of hESCs: can not replace bFGF

## albumin: chromatographically-purified lipid-rich bovine serum albumin with low IgG content
[1]; absence of albumin
  shape of hESC colonies: more flat and spread out

## insulin: human recombinant insulin from Sigma, medium component
[1]; media that contained only the named growth factor
  cell morphology in differentiated colonies: Large round cells
[3]
  immunoreactivity to acetylated H3 and H4, Myc, Tip60 HAT, nuclear focal localization of p300 HAT: undetectable or weak immunoreactivity

## laminin
[4]
  hESC colonies remaining undifferentiated (morphology, Oct-4): more than 80%

## transferrin: serum replacement component added at 8 μg/ml
[1]; absence of transferrin
  number of hESC colonies: fewer total hESC colonies
